Test results reported in patent publication US20220289732A1, “HETEROCYCLIC WDR5 INHIBITORS AS ANTI-CANCER COMPOUNDS” (NOVARTIS AG, priority 2019, published 2022).

What was measured:
[1] = molecular target: WDR5 (Homo sapiens, UniProt P61964); assay: WDR5 HTRF binding assay; settings: read-out: (a) WDR5 HTRF Pep Val v.1[Inhibitor/IC50]Qualified AC50
Protocol: The compounds were serially diluted 3-fold in DMSO to obtain a total of twelve concentrations. Then the test compounds at each concentration (90 nL of each) were transferred by Mosquito in the white Proxiplate plus 384-well microplate (Perkin Elmer). The assay mixture (typical 9 μL) containing 6 nM WDR5 and 20 nM Biotin-MLL1 WIN peptide (3762-3773) in the assay buffer (25 mM Hepes, pH7.5, 0.05% Tween 20, 2 mM DTT, 100 mM NaCl, 0.1% BSA) were added to the wells. For counter assay, a 9 μL solution of 15 nM Biotin-PEG-His peptide was added into the wells. After 20 min incubation at rt, a 3 μL detection solution containing 14 μg/ml Phycolink Streptavidin Allophycocyanin (Prozyme), 2 nM Anti-His-Eu (PerkinElmer) in assay buffer was then added. After 1 hr incubation, the plate was read in the EnVision reader (PerkinElmer) using the HTRF protocol (The protocol set-up: Lance/Delfia dual enhancer mirror, excitation at 320 UV2 (TRF), emission at APC665, 2nd emission at EuropiμM 615). HTRF signals were normalized based on the reading coming from the positive (maximum signal control) and negative controls (minimum signal control) to give percentage of activities left. The data were then fit to a dose response equation using the program Helios (Novartis) to get the IC50 values. Helios is a Novartis in-house assay data analysis software using the methods described by Normolle, D. P., Statistics in Medicine, 12:2025-2042 (1993); Formenko, I. et al., Computer Methods and programs in Biomedicine, 82, 31-37 (2006); Sebaugh, J. L., Pharmaceutical Statistics, 10:128-134 (2011); Kelly, C. et al., Biometrics, 46(4):1071-1085 (1990); and Kahm, M, et al., Journal of Statistical Software, 33(7):(2010) (grofit: Fitting Biological Growth Curves with R, pages 1-21, available at http://www.jstatsoft.org/).

[2] = molecular target: wild type MLL1 four-member complex (MLL1-4C) (Homo sapiens, UniProt P61964); assay: MLL1 LC-MS assay (SAH production); assay type: biochemical; settings: read-out: (b) MLL LCMS Peptide Val.v.1 Qualified AC50
Protocol: The compounds of the present disclosure were serially and separately diluted 3-fold in DMSO to obtain a total of eight or twelve concentrations. Then the test compounds at each concentration (120 nL of each) were transferred by Mosquito into white Proxiplate plus 384-well microplate (PerkinElmer). Solutions (6 μL) of 60 nM wild type MLL1 four-member complex (MLL1-4C) and 5 μM SAM in the reaction buffer (20 mM Tris-HCl, pH8.0, 0.01% Tween 20, 1 mM DTT, 10 mM MgCl2, 0.01% BSA) were added to the wells that were then incubated with the test compound for 20 min. A 6 μL solution of 20 μM of the peptide substrate H3K4me0 (histone H3[1-21]-Biotin) in the reaction buffer was added to initiate each reaction. The final components in the reaction solution include 30 nM MLL1-4C, 2.5 μM SAM, and 10 μM H3K4me0 with varying concentration of the compounds. A positive control consisted of 30 nM MLL1-4C, 2.5 μM SAM, and 10 μM substrate in the absence of the test compound, and a negative control consisted of 2.5 μM SAM, and 10 μM substrate only. Each reaction was incubated at rt for 120 min, then stopped by addition of 3 μL per of quench solution (2.5% TFA with 320 nM d4-SAH). The reaction mixture was centrifuged (Eppendorf centrifuge 5810, Rotor A-4-62) for 2 min at 2000 rmp. The SAH production from the enzymatic assays were monitored by LC-MS/MS on an API 4000 triple quadrupole mass spec with Turbolon Spray (Applied Biosystem) coupled with Prominenece UFLC (Shimazu). The level of SAH production were then normalized based on the values coming from the positive and negative controls to give percent enzyme activities. The data were then fit to a dose response equation using the program Helios (Novartis) to get the IC50 values of the test compound. Helios is a Novartis in-house assay data analysis software using the methods described by Normolle, D. P., Statistics in Medicine, 12:2025-2042 (1993); Formenko, I. et al., Computer Methods and programs in Biomedicine, 82, 31-37 (2006); Sebaugh, J. L., Pharmaceutical Statistics, 10:128-134 (2011); Kelly, C. et al., Biometrics, 46(4):1071-1085 (1990); and Kahm, M, et al., Journal of Statistical Software, 33(7):(2010) (grofit: Fitting Biological Growth Curves with R, pages 1-21, available at http://www.jstatsoft.org/).

[3] = test system: MV4-11 cells; assay: MV4-11 6-day cell growth CTG (CellTiter-Glo) assay; assay type: cell-based; settings: Homo sapiens, MV4-11, 144 h, 6 days, read-out: (c) MLL/WDR5 cell proliferation assay//MLL/WDR5 proliferation MV4:11 Qualified AC50
Protocol: MV4-11 6-Day Cell Growth CTG (CellTiter-Glo) Assay
Acute myeloid leukemia cell MV4-11 (ATCC® CRL-9591™) was cultured with RPMI 1640 medium (Thermo Fisher Scientific, cat #11875) supplemented with 10% FBS (Thermo Fisher Scientific, cat #10099141) in humidified incubator at 37° C., 5% CO2. To assess the effect of WDR5 inhibitor on cell growth, the compound of the present invention was dissolved in DMSO and serially diluted at 1:3 for 12 points starting from 10 mM then 200 nL for the replicate of each dose per well was dispensed to Viewplate-384 Black (Perkin Elmer). Exponentially growing MV4-11 cells were seeded at the density of 300 cells per well in 40 μL to the plate, so the final compound working concentration starts from 50 μM. After 6 days, 40 μL CellTiter-Glo (Promega, cat #G7573) was added into the cell culture well and luminescence was read with Envision (Perkin Elmer) to determine the viable cells. The percentage inhibition was calculated against the samples treated with DMSO only and the data were used for dose response curve fitting in GraphPad Prism to get the IC50 of representative compound of present invention, which reflects the inhibition of WDR5 activity in the proliferation of MV4;11.

IC50 [1] | AC50 [2] | Compound | AC50 [3]
< 10 nM | 10 to 1000 nM | CCOc1cc(CN2CCc3c(cc(Cn4ccnc4C)cc3-c3cn(C)c(=O)cc3C(F)(F)F)C2=O)ncc1C#N [Example 297] | < 10 nM
< 10 nM | 10 to 1000 nM | CCOc1cc([C@H](C)N2CCc3c(cc(CCN4CC[C@@H](O)[C@H]4C)cc3-c3ccc(F)nc3C)C2=O)ncc1C#N [Example 225, 4-ethoxy-6-((S)-1-(5-(6-fluoro-2-methylpyridin-3-yl)-7-(2-((2R, 3R)-3-hydroxy-2-methylpyrrolidin-1-yl)ethyl)-1-oxo-3,4-dihydroisoquinolin-2(1H)-yl)ethyl)nicotinonitrile] | 10 to 1000 nM
< 10 nM | 10 to 1000 nM | CCOc1cc(C(C)N2CCc3c(cc(CCN(C)CCF)cc3-c3ccc(F)nc3C)C2=O)ncc1C#N (stereo not shown) [Example 236] | 10 to 1000 nM
10 to 1000 nM | 10 to 1000 nM | CCOc1cc([C@H](C)N2CCc3c(CN(C)C)cc(Cn4ccnc4C)cc3C2=O)ncc1C#N [Example 295] | 1000 to 25000 nM
< 10 nM | 10 to 1000 nM | CCOc1cc(CN2CCc3c(cc(Cn4ccnc4C)cc3-c3cc(C)nn3C)C2=O)ncc1C#N [Example 300] | 
< 10 nM |  | CCOc1cc([C@H](C)N2CCc3c(cc(Cn4ccnc4C)cc3-c3c[nH]nc3C)C2=O)ncc1C#N [Example 302] | 
< 10 nM | 10 to 1000 nM | CCOc1cc(CN2CCc3c(cc(Cn4ccnc4C)cc3-c3cn(S(C)(=O)=O)nc3C)C2=O)ncc1C#N [Example 301] | 

Continued, molecule first:

Compound | IC50 [1] | AC50 [2] | AC50 [3]
CCOc1cc(CN2CCc3c(cc(CCN4C[C@@H](O)[C@H]4C)cc3-c3ccc(F)nc3C)C2=O)ncc1C#N [Example 222] | 10 to 1000 nM | 10 to 1000 nM | 10 to 1000 nM
CCOc1cc([C@H](C)N2CCc3c(cc(CCN(C)CC)cc3-c3cccnc3C(F)F)C2=O)ncc1C#N [Example 119, (S)-6-(1-(5-(2-(difluoromethyl)pyridin-3-yl)-7-(2-(ethyl(methyl)amino)ethyl)-1-oxo-3,4-dihydroisoquinolin-2(1H)-yl)ethyl)-4-ethoxynicotinonitrile] | < 10 nM | 10 to 1000 nM | 10 to 1000 nM
CCOc1cc([C@H](C)N2CCc3ccc(Cn4ccnc4NC)cc3C2=O)cnc1C#N [Example 97, (S)-3-ethoxy-5-(1-(7-((2-(methylamino)-1H-imidazol-1-yl)methyl)-1-oxo-3,4-dihydroisoquinolin-2(1H)-yl)ethyl)picolinonitrile] | 10 to 1000 nM | 10 to 1000 nM | 10 to 1000 nM
CNc1nccn1Cc1cc(-c2cc(CO)cnc2Cl)c2ccn(Cc3ccc(OC)c(F)c3)c(=O)c2c1 [Example 104, 5-(2-chloro-5-(hydroxymethyl)pyridin-3-yl)-2-(3-fluoro-4-methoxybenzyl)-7-((2-(methylamino)-1H-imidazol-1-yl)methyl)isoquinolin-1(2H)-one] | 10 to 1000 nM | 10 to 1000 nM | 10 to 1000 nM
CNc1nccn1Cc1cc2c(c(-c3cc(CO)cnc3Cl)c1)CCN(Cc1cc(OC)c(F)cn1)C2=O [Example 68, 5-(2-chloro-5-(hydroxymethyl)pyridin-3-yl)-2-((5-fluoro-4-methoxypyridin-2-yl)methyl)-7-((2-(methylamino)-1H-imidazol-1-yl)methyl)-3,4-dihydroisoquinolin-1(2H)-one] | 10 to 1000 nM | 10 to 1000 nM | 10 to 1000 nM
CCOc1cc([C@H](C)N2CCc3c(cc(CCN(C)CC)cc3-c3cn(C(F)F)c(=O)cc3Cl)C2=O)ncc1C#N [Example 174, (S)-6-(1-(5-(4-chloro-1-(difluoromethyl)-6-oxo-1,6-dihydropyridin-3-yl)-7-(2-(ethyl(methyl)amino)ethyl)-1-oxo-3,4-dihydroisoquinolin-2(1H)-yl)ethyl)-4 ethoxynicotinonitrile] | < 10 nM | 10 to 1000 nM | 10 to 1000 nM
CCOc1cc(CN2CCc3c(cc(Cn4ccnc4NC)cc3C3CC3)C2=O)nn1C [Example 87, 5-cyclopropyl-2-((5-ethoxy-1-methyl-1H-pyrazol-3-yl)methyl)-7-((2-(methylamino)-1H-imidazol-1-yl)methyl)-3,4-dihydroisoquinolin-1(2H)-one] | 10 to 1000 nM | 10 to 1000 nM | 10 to 1000 nM
CCOc1cc([C@H](C)N2CCc3c(cc(CCN(C)CC)cc3-c3ccn(C)c(=O)c3C)C2=O)ncc1C#N [Example 161, (S)-6-(1-(5-(1,3-dimethyl-2-oxo-1,2-dihydropyridin-4-yl)-7-(2-(ethyl(methyl)amino)ethyl)-1-oxo-3,4-dihydroisoquinolin-2(1H)-yl)ethyl)-4-ethoxynicotinonitrile] | < 10 nM | 10 to 1000 nM | 10 to 1000 nM
CNc1nccn1Cc1ccc2cnn(C(C)c3cnc(F)c(OC)c3)c(=O)c2c1 (stereo not shown) [Example 109, 2-(1-(6-fluoro-5-methoxypyridin-3-yl)ethyl)-7-((2-(methylamino)-1H-imidazol-1-yl)methyl)phthalazin-1(2H)-one] | 10 to 1000 nM | 10 to 1000 nM | 
CNc1nccn1Cc1ccc2ncn(C(C)c3cnc(F)c(OC)c3)c(=O)c2c1 (stereo not shown) [Example 110, 3-(1-(6-fluoro-5-methoxypyridin-3-yl)ethyl)-6-((2-(methylamino)-1H-imidazol-1-yl)methyl)quinazolin-4(3H)-one] | 10 to 1000 nM | 10 to 1000 nM | 
CCOc1cc(C(C)N2CCc3c(cc(CCN(C)CC)cc3C3=CCNCC3)C2=O)ncc1C#N (stereo not shown) [Example 159, 4-ethoxy-6-(1-(7-(2-(ethyl(methyl)amino)ethyl)-1-oxo-5-(1,2,3,6-tetrahydropyridin-4-yl)-3,4-dihydroisoquinolin-2(1H)-yl)ethyl)nicotinonitrile] | 10 to 1000 nM | 1000 to 25000 nM | 
CCOc1cc(C(C)N2CCc3c(cc(CCN(C)CC)cc3-n3cccn3)C2=O)ncc1C#N (stereo not shown) [Example 209] | 10 to 1000 nM | 10 to 1000 nM | 
